Earlier results on 2 compounds are cited in US20060165637A1, “Topical agent containing phytanic acid or a derivative thereof” (priority 2003, published 2006).

The subject of one series is RXR. The conditions noted are these: relative to retinoic acid.
For series [1] the following is noted: applied topically to the skin.

Turning to `CC(C)CCCC(C)CCCC(C)CCCC(C)CC(=O)O` (centres unmarked) [Phytanic acid, 3,7,11,15-tetramethylhexadecanoic acid], the “RXR binding affinity, times weaker than that of retinoic acid” value in the series on RXR is given as 200 times. For the compound `C/C(=C\CO)CCC[C@H](C)CCC[C@H](C)CCCC(C)C` [phytol], in series [1], the “conversion into phytanic acid” value is given as “does not occur”.
